In patent publication US8815811B2, “Peptides and methods for their preparation and use” (Eli Lilly and Company, priority 2010, dated 2014):
Where no end group is shown, it is not given here. [ ]: non-standard residue; d: D form. 1Nal = N[C@@H](Cc1cccc2ccccc12)C(=O)O; Aib = CC(C)(N)C(=O)O

System: diet-induced obese Long Evans rats
Test: Effects on food intake, body weight, body composition and plasma lipids in DIO Long Evans rats
Type: in vivo
Procedure: Four to five months old male diet-induced obese Long Evans rats are used. Animals are individually housed in a temperature-controlled (24° C.) facility with a 12 hour light/dark cycle (lights on 22:00), and have free access to food (diet TD95217) and water. Animals are acclimated to the facility for at least 2 weeks. On day 0, body composition is determined by QNMR and rats are randomized to respective groups (n=6/group) based on body weight, % fat, and % lean mass. Compound is administered by subcutaneous injection on days 1, 4, 8, 11, and 15. […] After CO2 euthanasia, blood samples are taken by cardiac stick for analysis of exposure determination.

For “Aib^2, Aib^13, Nal^22, Aib^29, Cys^43(PEG20K), Cys^44 (PEG20K)-GIP (Y[Aib]EGTFTSDYSI[Aib]LDKIAQRA[1Nal]VQWLIA[Aib]KGKKQEWKHQITQC(PEG 20 kDa)C(PEG 20 kDa)-NH2) [Example 4]”, the “total cholesterol (plasma)” value (10 nmol/Kg) was 110 mg/dL, the “triglycerides (plasma)” value (10 nmol/Kg) was 488.7 mg/dL and the “free fatty acids (plasma)” value (30 nmol/Kg) was 0.82 mEq/L. For the same substance, the “total cholesterol (plasma)” value (30 nmol/Kg) was 104 mg/dL, the “triglycerides (plasma)” value (30 nmol/Kg) was 212.2 mg/dL and the fat mass reduced (30 nmol/Kg over 16 days) was 1.8%. For the same substance, the lean mass increased (30 nmol/Kg over 16 days) was 0.4%, the fat mass reduced (100 nmol/Kg over 16 days) was 3.2% and the lean mass increased (100 nmol/Kg over 16 days) was 1.8%. For the same substance, the “changes in body weight and body composition compared to vehicle-treated DIO rats” value (over 16 days) was “increasing the percentage of lean mass and decreasing the percentage of fat mass”, the “amount of free fatty acids” value (versus vehicle) was “increased” and the “amounts of plasma lipids, including triglycerides and total cholesterol” value (versus vehicle) was “lowered”.
